The values below come from US20250289813A1, “CDK INHIBITORS, PHARMACEUTICAL COMPOSITIONS, AND THERAPEUTIC APPLICATIONS” (ONQUALITY PHARMACEUTICALS CHINA LTD., priority 2022, published 2025).

pEC50, pIC50: −log10 of the molar value.

One experiment deals with CDK6/cyclin D1 (Homo sapiens (Human), UniProt Q00534). As to the kind of experiment: CDK6 Caliper Mobility Shift assay. The class given is biochemical. The protocol:
(§1) A Caliper Mobility Shift assay was used to determine the inhibitory activities of a compound against CDK4/cyclin D1 and CDK6/cyclin D1 in their respective kinase buffers (CDK4: 20 mM HEPES, pH 7.5, and 0.01% Triton X-100; CDK6: 50 mM HEPES, pH 7.5, and 0.0015% BRIJ-35). The CDK4/cyclin D1 and CDK6/cyclin D1 were obtained from PROQINASE and CARNA, respectively. A FAM-labeled peptide was obtained from GL.
(§2) The compound at predetermined concentrations was pre-incubated with CDK4/cyclin D1 or CDK6/cyclin D1 in a 384-well microplate at room temperature for 10 min. The FAM-labeled peptide and ATP were subsequently added to initiate the kinase reactions. The final enzyme concentrations were 15 nM for CDK4 and 7.5 nM for CDK6. The final ATP concentrations were […] for CDK4 and […] for CDK6. The microplate was allowed to incubate at 28° C. The kinase reactions were stopped by adding a stop buffer (100 mM HEPES, pH 7.5, 0.012% BRIJ-35, 0.2% Coating Reagent 3 (Caliper Life Sciences), and […]). Conversion data were recorded and utilized to calculate the percent inhibition values for each compound and an IC50 value was then determined. The results are summarized in Table 1, where the symbol “***” represents a value no greater than 200 nM, the symbol “**” represents a value greater than 200 nM but no greater than 500 nM, and the symbol “*” represents a value greater than 500 nM.

The subject of experiment [1] is MCF-7 human breast cancer cells. As to the kind of experiment: CELLTITER-GLO luminescent cell viability assay. The class given is cell-based. As to conditions: MCF7, 192 h, MCF-7 cells, 8 days, read-out: EC50 (Effect on Cell Viability). The protocol: A CELLTITER-GLO luminescent cell viability assay was carried out using MCF-7 human breast cancer cells under the normal growth condition. The MCF-7 human breast cancer cells were grown at 37° C. in a 5% CO2 humidified incubator in EMEM, supplemented 10% FBS, 0.01 mg/mL bovine insulin. The cells were seeded at a 3,000 cells/well in a 96-well tissue culture plate. The cells were allowed to adhere overnight in the incubator. A compound (5 μL) in a medium at a predetermined concentration. After the cells was incubated at 37° C. for 8 days, a CELLTITER-GLO detection solution (100 μL) was added. The cells were mixed on an orbital shaker for 5 min and then incubated for additional 10 min. The plate was read with an ENVISION reader. The results are summarized in Table 2, where the symbol “+++” represents a value no greater than 1 μM, the symbol “++” represents a value greater than 1 μM but no greater than 10 μM, and the symbol “+” represents a value greater than 10 μM.

For another experiment, the target named is CDK4/cyclin D1 (Homo sapiens (Human), UniProt P11802). As to the kind of experiment: CDK4 Caliper Mobility Shift assay. The class given is biochemical. The protocol:
as §1, §2

Experiment [2] has as its system COLO205 human colon cancer cells. As to the kind of experiment: CASPASE-GLO 3/7 apoptosis assay (protection against chemotherapy drug induced cytotoxicity). The class given is cell-based. As for the experimental part:
The CASPASE-GLO 3/7 apoptosis assay was used to evaluate the protective effect of a compound on the cytotoxicity induced by a chemotherapy drug. The apoptosis assay was carried out using COLO205 human colon cancer cells. The cells were grown at 37° C. in a 5% CO2 humidified incubator in PRIM1640 supplemented with 10% FBS and 0.01 mg/mL bovine insulin. The cells were seeded at 4,000 cells/well in a 96-well plate. After incubated overnight, the cells were pretreated with a compound at predetermined concentrations or a vehicle for 16 h, followed by addition of a chemotherapy drug. After incubated for another 48 h, the CASPASE-GLO 3/7 reagent (100 μL/well) was added. The cells were mixed on an orbital shaker for 10 min and incubated at room temperature for 2 h. The 96-well plate was read with an ENVISION reader.

CDK4/cyclin D1, sequence (P11802 whole entry): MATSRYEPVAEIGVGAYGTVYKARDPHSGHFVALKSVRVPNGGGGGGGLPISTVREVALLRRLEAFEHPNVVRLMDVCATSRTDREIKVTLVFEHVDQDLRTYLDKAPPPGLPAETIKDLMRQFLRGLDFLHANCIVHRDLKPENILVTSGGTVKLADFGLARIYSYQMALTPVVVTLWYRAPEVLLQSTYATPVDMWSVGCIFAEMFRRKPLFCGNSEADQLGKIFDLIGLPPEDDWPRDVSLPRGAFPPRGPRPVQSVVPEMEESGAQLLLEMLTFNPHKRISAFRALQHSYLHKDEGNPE
CDK4/cyclin D1, sequence (P24385 whole entry partner): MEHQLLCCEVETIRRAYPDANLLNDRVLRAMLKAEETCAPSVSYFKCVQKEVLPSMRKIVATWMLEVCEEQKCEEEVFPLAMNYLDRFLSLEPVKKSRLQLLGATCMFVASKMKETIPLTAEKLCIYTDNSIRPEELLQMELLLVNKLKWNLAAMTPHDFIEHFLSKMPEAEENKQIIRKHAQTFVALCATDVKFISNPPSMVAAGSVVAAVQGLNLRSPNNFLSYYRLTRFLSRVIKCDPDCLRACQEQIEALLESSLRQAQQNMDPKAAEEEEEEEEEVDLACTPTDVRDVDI
CDK6/cyclin D1, sequence (Q00534 whole entry): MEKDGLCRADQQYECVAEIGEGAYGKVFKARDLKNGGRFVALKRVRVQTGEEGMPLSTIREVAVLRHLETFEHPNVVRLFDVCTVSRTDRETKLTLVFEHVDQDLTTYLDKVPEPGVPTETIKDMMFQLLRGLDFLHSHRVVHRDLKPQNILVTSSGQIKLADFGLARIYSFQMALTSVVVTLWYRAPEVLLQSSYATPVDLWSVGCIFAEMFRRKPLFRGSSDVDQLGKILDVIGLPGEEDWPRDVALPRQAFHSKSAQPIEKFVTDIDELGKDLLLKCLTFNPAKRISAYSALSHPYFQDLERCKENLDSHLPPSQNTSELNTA
CDK6/cyclin D1, sequence (P24385 whole entry partner): as the sequence (P24385 whole entry partner) above

`CC(=O)c1c(C)c2cnc(Nc3ccc(N4CCN(S(=O)(=O)NC(=O)CN)CC4)cn3)nc2n(C2CCCC2)c1=O` [Compound A29, N-((4-(6-((6-Acetyl-8-cyclopentyl-5-methyl-7-oxo-7,8-dihydropyrido[2,3-d]-pyrimidin-2-yl)amino)pyridin-3-yl)piperazin-1-yl)sulfonyl)-2-aminoacetamide]: the pIC50 at CDK6/cyclin D1 and at CDK4/cyclin D1 was at least 6.70 throughout. In experiment [1], the negative logarithm of the EC50 (pEC50) is at least 6.00. Further, the “RPR (relative protection rate)” value stood at 89% in experiment [2] (compound 1 μM, 5-Fu (10 μM)) and 78% in experiment [2] (compound 10 μM, 5-Fu (10 μM)).
As to `CC(=O)c1c(C)c2cnc(Nc3ccc(N4CCN(S(=O)(=O)NC(=O)C5CCCO5)CC4)cn3)nc2n(C2CCCC2)c1=O` (centres unmarked) [Compound A39, N-((4-(6-((6-Acetyl-8-cyclopentyl-5-methyl-7-oxo-7,8-dihydropyrido[2,3-d]-pyrimidin-2-yl)amino)pyridin-3-yl)piperazin-1-yl)sulfonyl)tetrahydrofuran-2-carboxamide], the negative logarithm of the IC50 (pIC50) at CDK6/cyclin D1 was 6.30 to 6.70; on CDK4/cyclin D1 it was at least 6.70. For the same compound, the negative logarithm of the EC50 (pEC50) in experiment [1] is 5.00 to 6.00. Moreover, the “RPR (relative protection rate)” value is 79% in experiment [2] (compound 1 μM, Irinotecan (20 μM)) and 86% in experiment [2] (compound 10 μM, Irinotecan (20 μM)).
Regarding `CC(=O)c1c(C)c2cnc(Nc3ccc(N4CCN(S(=O)(=O)NC(=O)OCCNC(=O)[C@H](N)C(C)C)C[C@@H]4C)cn3)nc2n(C2CCCC2)c1=O` [Compound A55, 2-((R)-2-Amino-3-methylbutanamido)ethyl (((S)-4-(6-((6-acetyl-8-cyclopentyl-5-methyl-7-oxo-7,8-dihydropyrido[2,3-d]pyrimidin-2-yl)amino)pyridin-3-yl)-3-methylpiperazin-1-yl)sulfonyl)carbamate], the negative logarithm of the IC50 (pIC50) on CDK6/cyclin D1 and at CDK4/cyclin D1 was at least 6.70 each time. Besides, the pEC50 in experiment [1] is 5.00 to 6.00. For the same compound, the “RPR (relative protection rate)” value in experiment [2] (compound 0.1 μM, 5-Fu (10 μM)) turned out to be 38%; in experiment [2] (compound 10 μM, 5-Fu (10 μM)), 88%.
`CC(=O)c1c(C)c2cnc(Nc3ccc(N4CCN(S(=O)(=O)N[C@H](C(=O)O)C(C)C)CC4)cn3)nc2n(C2CCCC2)c1=O` [Compound A45, ((4-(6-((6-Acetyl-8-cyclopentyl-5-methyl-7-oxo-7,8-dihydropyrido[2,3-d]-pyrimidin-2-yl)amino)pyridin-3-yl)piperazin-1-yl)sulfonyl)-L-valine]: the pIC50 on CDK6/cyclin D1 and on CDK4/cyclin D1 was at least 6.70 in each case. The pEC50 in experiment [1] was 5.00 to 6.00.
Consider `CC(=O)c1c(C)c2cnc(Nc3ccc(N4CCN(S(=O)(=O)NC(=O)[C@H]5CCCN5)CC4)cn3)nc2n(C2CCCC2)c1=O` [Compound A33, (R)—N-((4-(6-((6-Acetyl-8-cyclopentyl-5-methyl-7-oxo-7,8-dihydropyrido[2,3-d]-pyrimidin-2-yl)amino)pyridin-3-yl)piperazin-1-yl)sulfonyl)pyrrolidine-2-carboxamide], for which the pIC50 on CDK6/cyclin D1 and on CDK4/cyclin D1 was at least 6.70 in each case. Besides, the pEC50 in experiment [1] is at least 6.00.
As to `CCCC(=O)NS(=O)(=O)N1CCN(c2ccc(Nc3ncc4c(C)c(C(C)=O)c(=O)n(C5CCCC5)c4n3)nc2)CC1` [Compound A37, N-((4-(6-((6-Acetyl-8-cyclopentyl-5-methyl-7-oxo-7,8-dihydropyrido[2,3-d]-pyrimidin-2-yl)amino)pyridin-3-yl)piperazin-1-yl)sulfonyl)butyramide], the negative-log IC50 (pIC50) at CDK6/cyclin D1 and at CDK4/cyclin D1 was 6.30 to 6.70 each time. Moreover, in experiment [1], the pEC50 was 5.00 to 6.00.
`CSCC[C@H](N)C(=O)NCCOC(=O)NS(=O)(=O)N1CCN(c2ccc(Nc3ncc4c(C)c(C(C)=O)c(=O)n(C5CCCC5)c4n3)nc2)CC1` [Compound A19, (S)-2-(2-Amino-4-(methylthio)butanamido)ethyl ((4-(6-((6-acetyl-8-cyclopentyl-5-methyl-7-oxo-7,8-dihydropyrido[2,3-d]pyrimidin-2-yl)amino)pyridin-3-yl)piperazin-1-yl)-sulfonyl)carbamate]: the pIC50 at CDK6/cyclin D1 and on CDK4/cyclin D1 was at least 6.70 each time. The negative-log EC50 (pEC50) in experiment [1] is under 5.00.
Consider `CC(=O)c1c(C)c2cnc(Nc3ccc(N4CCN(S(=O)(=O)NC(C)C)CC4)cn3)nc2n(C2CCCC2)c1=O` [Compound A48, 4-(6-((6-Acetyl-8-cyclopentyl-5-methyl-7-oxo-7,8-dihydropyrido[2,3-d]-pyrimidin-2-yl)amino)pyridin-3-yl)-N-isopropylpiperazine-1-sulfonamide], for which the negative logarithm of the IC50 (pIC50) on CDK6/cyclin D1 and at CDK4/cyclin D1 was at least 6.70 each time. The negative-log EC50 (pEC50) in experiment [1] was 5.00 to 6.00.
In the case of `CC(=O)c1c(C)c2cnc(Nc3ccc(N4CCN(S(=O)(=O)OCOC(=O)c5ccccc5)CC4)cn3)nc2n(C2CCCC2)c1=O` [Compound B3, (((4-(6-((6-Acetyl-8-cyclopentyl-5-methyl-7-oxo-7,8-dihydropyrido[2,3-d]-pyrimidin-2-yl)amino)pyridin-3-yl)piperazin-1-yl)sulfonyl)oxy)methyl benzoate], the pIC50 at CDK6/cyclin D1 and at CDK4/cyclin D1 was at least 6.70 each time. Further, the negative-log EC50 (pEC50) in experiment [1] was 5.00 to 6.00.
In the case of `CC(=O)c1c(C)c2cnc(Nc3ccc(N4CCN(S(=O)(=O)NCCO)CC4)cn3)nc2n(C2CCCC2)c1=O` [Compound A42, 4-(6-((6-Acetyl-8-cyclopentyl-5-methyl-7-oxo-7,8-dihydropyrido[2,3-d]-pyrimidin-2-yl)amino)pyridin-3-yl)-N-(2-hydroxyethyl)piperazine-1-sulfonamide], the pIC50 at CDK6/cyclin D1 and on CDK4/cyclin D1 was at least 6.70 in each case. Also, the pEC50 in experiment [1] was 5.00 to 6.00.
On to `CC(=O)c1c(C)c2cnc(Nc3ccc(N4CCN(S(=O)(=O)NCC(=O)O)CC4)cn3)nc2n(C2CCCC2)c1=O` [Compound A44, ((4-(6-((6-Acetyl-8-cyclopentyl-5-methyl-7-oxo-7,8-dihydropyrido[2,3-d]-pyrimidin-2-yl)amino)pyridin-3-yl)piperazin-1-yl)sulfonyl)glycine], for which the negative-log IC50 (pIC50) on CDK6/cyclin D1 and on CDK4/cyclin D1 was at least 6.70 each time. Besides, the pEC50 in experiment [1] was 5.00 to 6.00. The “RPR (relative protection rate)” value turned out to be 90% in experiment [2] (compound 5 μM, 5-Fu (10 μM)) and 65% in experiment [2] (compound 20 μM, 5-Fu (10 μM)).
With `CC(=O)c1c(C)c2cnc(Nc3ccc(N4CCN(S(=O)(=O)N5CC(O)C5)CC4)cn3)nc2n(C2CCCC2)c1=O` [Compound A52, 6-Acetyl-8-cyclopentyl-2-((5-(4-((3-hydroxyazetidin-1-yl)sulfonyl)piperazin-1-yl)pyridin-2-yl)amino)-5-methylpyrido[2,3-d]pyrimidin-7(8H)-one], the negative-log IC50 (pIC50) at CDK6/cyclin D1 and at CDK4/cyclin D1 was at least 6.70 each time. In addition, the pEC50 in experiment [1] was 5.00 to 6.00.
For `CC(=O)c1c(C)c2cnc(Nc3ccc(N4CCN(S(=O)(=O)NC(=O)C(N)C(C)C)CC4)cn3)nc2n(C2CCCC2)c1=O` (centres unmarked) [Compound A30, N-((4-(6-((6-Acetyl-8-cyclopentyl-5-methyl-7-oxo-7,8-dihydropyrido[2,3-d]-pyrimidin-2-yl)amino)pyridin-3-yl)piperazin-1-yl)sulfonyl)-2-amino-3-methylbutanamide], the pIC50 on CDK6/cyclin D1 and at CDK4/cyclin D1 was at least 6.70 in each case. Moreover, in experiment [1], the negative logarithm of the EC50 (pEC50) was at least 6.00.
Turning to `CC(=O)c1c(C)c2cnc(Nc3ccc(N4CCN(S(=O)(=O)NC(=O)OC5CC5)CC4)cn3)nc2n(C2CCCC2)c1=O` [Compound A24, Cyclopropyl ((4-(6-((6-acetyl-8-cyclopentyl-5-methyl-7-oxo-7,8-dihydropyrido[2,3-d]pyrimidin-2-yl)amino)pyridin-3-yl)piperazin-1-yl)sulfonyl)carbamate], the negative-log IC50 (pIC50) at CDK6/cyclin D1 and on CDK4/cyclin D1 was at least 6.70 throughout. For the same compound, the negative logarithm of the EC50 (pEC50) in experiment [1] is 5.00 to 6.00.
